# Reference: patent publication EP0935965A1, “ANTIPYLORI AGENT” (TORAY INDUSTRIES, INC., priority 1996, dated 1997)
# Where a SMILES comes first, the peptide text is derived from it.
# Test system: acetic acid ulcer
# Assay: Healing accelerating action on acetic acid ulcer of rat
# Assay type: in vivo, Sprague Dawle rats
# Experimental: 15 Sprague Dawle rats each having a weight of about 220 g were used, and a gastric ulcer was experimentally formed in each of the rats. A gastric ulcer was formed by exposing the gastric anterior wall of each of the rats by ventrotomy under etherization, and injecting 0.03 ml of 20% acetic acid into the submucous layer in the boundary between the fundus glands and the pyloric glands of the gastric anterior wall by a Hamilton microsyringe in accordance with the method of Okabe et al., closing the stomach, and then feeding for 7 days in a normal manner.
# On the seventh day, five rats were sacrificially killed, and the stomachs were extracted therefrom. The residual 10 rats were divided into two groups consisting of 5 rats each and used as a control group administered with physiologic saline and an experimental group administered with PR-39.
# The rats in the control group and the experimental group were intraperitoneally administered with 1 ml of physiologic saline and 0.8 mg/ml of PR-39, respectively, once a day. After administration of physiologic saline or PR-39 for 7 days, the stomach was extracted from each of the rats on the day after final administration (14 days after acetic acid administration).
# In each of the extracted stomachs, the pyloric ring and the esophagogastric junction were clamped, and 10 ml of 70% alcohol was injected into the stomach, followed by fixing. The stomach was cut along the curvatura ventriculi major to expose the gastric mucosal surface, and the gastric ulcer formed was visually observed to measure the surface area thereof.
# Successively, a central portion of the gastric ulcer was cut out in parallel to the curvatura ventriculi minor, embedded in paraffin, and then stained with HE to histologically examine the formed gastric ulcer.
# The examination terms included the length of each of the gastric ulcer, and the thickness of the granulation of the ulcer bottom thereof.
# [1] = 14 days after acetic acid, histological observation, PR-39 0.8 mg/ml intraperitoneally once a day for 7 days
structure (smiles),measurement,setting,value
"CC[C@H](C)[C@H](NC(=O)[C@H](CCCNC(=N)N)NC(=O)[C@@H]1CCCN1C(=O)[C@@H]1CCCN1C(=O)[C@H](CC(C)C)NC(=O)[C@H](CCCNC(=N)N)NC(=O)[C@@H]1CCCN1C(=O)[C@@H]1CCCN1C(=O)[C@H](Cc1ccccc1)NC(=O)[C@H](Cc1ccccc1)NC(=O)[C@@H]1CCCN1C(=O)[C@@H]1CCCN1C(=O)[C@@H]1CCCN1C(=O)[C@H](CCCNC(=N)N)NC(=O)[C@@H]1CCCN1C(=O)[C@H](CCCNC(=N)N)NC(=O)[C@@H]1CCCN1C(=O)[C@H](CC(C)C)NC(=O)[C@H](Cc1ccc(O)cc1)NC(=O)[C@@H]1CCCN1C(=O)[C@@H]1CCCN1C(=O)[C@H](CCCNC(=N)N)NC(=O)[C@@H]1CCCN1C(=O)[C@H](CCCNC(=N)N)NC(=O)[C@H](CCCNC(=N)N)NC(=O)[C@@H](N)CCCNC(=N)N)C(=O)N1CCC[C@H]1C(=O)N1CCC[C@H]1C(=O)NCC(=O)N[C@@H](Cc1ccccc1)C(=O)N1CCC[C@H]1C(=O)N1CCC[C@H]1C(=O)N[C@@H](CCCNC(=N)N)C(=O)N[C@@H](Cc1ccccc1)C(=O)N1CCC[C@H]1C(=O)N1CCC[C@H]1C(=O)N[C@@H](CCCNC(=N)N)C(=O)N[C@@H](Cc1ccccc1)C(=O)N1CCC[C@H]1C(N)=O [PR-39, proline arginine rich peptide-39] (H-RRRPRPPYLPRPRPPPFFPPRLPPRIPPGFPPRFPPRFP-NH2; N-terminus and C-terminus assumed)",Ulcer surface area,"14 days after acetic acid, PR-39 0.8 mg/ml intraperitoneally once a day for 7 days",2.82 ± 1.96 mm2; average±SEM
same,visual observation of gastric mucosa,"14 days after acetic acid, compared with the control group (physiologic saline)",ulcer scar accompanied with concentration of the mucosal folds of gallbladder was observed
same,Diameter of ulcer,[1],1.58 ± 0.49 mm
same,Thickness of granulation tissue,[1],1.39 ± 0.59 mm
same,ulcer area as compared with the control group,PR-39 administered every day in the healing stage (7th to 14th day),significantly decreased
same,thickness of granulation at the ulcer bottom,PR-39 administration,significantly decreased
same,length of an ulcer (histological observation),PR-39 administration group,significantly decreased
